In paper PMC5653977 (EMBO Molecular Medicine, 2017):
Where a name gives a salt, the structure may show the parent alone.

Each compound was assayed on NRG1-ERBB4 signaling (assay: Nrg1-ERBB4-PIK3R1 split TEV co-culture compound screen of the NIH Clinical Collection). Conditions: NIH Clinical Collection NCC-003 raw data; compounds ranked by Z-score; 'flagged' given instead of a Z-score.
Type: cell-based, human

SMILES	Z-SCORE
C[C@H]1[C@H](OC(=O)CCC(=O)O)O[C@@H]2O[C@@]3(C)CC[C@H]4[C@H](C)CC[C@@H]1[C@@]24OO3 [ARTESUNATE]	flagged
c1ccc(-c2ccc(C(c3ccccc3)n3ccnc3)cc2)cc1 (stereo not shown) [Bifonazole, reference compound]	-3.45
CC(=O)[C@H]1CC[C@H]2[C@@H]3CCC4=CC(=O)CC[C@]4(C)[C@H]3CC[C@]12C [PROGESTERONE]	-1.2
CC(C)C[C@H](NC(=O)[C@@H](COC(C)(C)C)NC(=O)[C@H](Cc1ccc(O)cc1)NC(=O)[C@H](CO)NC(=O)[C@H](Cc1c[nH]c2ccccc12)NC(=O)[C@H](Cc1cnc[nH]1)NC(=O)[C@@H]1CCC(=O)N1)C(=O)N[C@@H](CCCNC(=N)N)C(=O)N1CCC[C@H]1C(=O)NNC(N)=O [GOSERELIN ACETATE]	-1.23
CC(C)[C@]12O[C@H]1[C@@H]1O[C@]13[C@]1(O[C@H]1C[C@H]1C4=C(CC[C@@]13C)C(=O)OC4)[C@@H]2O [TRIPTOLIDE]	flagged
CSc1nc2cc(Cl)c(Oc3cccc(Cl)c3Cl)cc2[nH]1 [TRICLABENDAZOLE]	-1.39
CCOC(=O)[C@H](CCc1ccccc1)N[C@@H](C)C(=O)N1[C@H](C(=O)O)C[C@@H]2CCC[C@@H]21 [reference compound]	-1.41
Cl.O=C1[C@H]2CCCC[C@H]2C(=O)N1CCCCN1CCN(c2nsc3ccccc23)CC1 [PEROSPIRONE HCl]	-1.42

Same assay, conditions: compound screen of the NIH Clinical Collection, sheet raw data NCC-003; compounds ranked by Z-score

SMILES	Z-SCORE
CN1CCN2c3ncccc3Cc3ccccc3C2C1 (stereo not shown) [mirtazapine, reference compound]	-0.36
CN(CCOc1ccc(NS(C)(=O)=O)cc1)CCc1ccc(NS(C)(=O)=O)cc1 [DOFETILIDE]	0
CN(C)CC/C=C1/c2ccccc2COc2ccc(CC(=O)O)cc21 [OLOPATADINE HCl]	0.55
NC(=O)OCC(COC(N)=O)c1ccccc1 [Felbamate]	-0.25
CCCc1nc(C(C)(C)O)c(C(=O)OCc2oc(=O)oc2C)n1Cc1ccc(-c2ccccc2-c2nnn[nH]2)cc1 [OLMESARTAN MEDOXOMIL]	0.84
COc1ccccc1OCC(O)CN1CCN(CC(=O)Nc2c(C)cccc2C)CC1 (stereo not shown) [Ranolazine dihydrochloride]	0.21
CC(C)(C)NC(=O)[C@@H]1C[C@@H]2CCCC[C@@H]2CN1C[C@@H](O)[C@H](Cc1ccccc1)NC(=O)[C@H](CC(N)=O)NC(=O)c1ccc2ccccc2n1 [SAQUINAVIR MESYLATE]	-0.84
CC[C@@H]1C(=O)OC[C@@H]1Cc1cncn1C [PILOCARPINE HYDROCHLORIDE]	-0.77
CC1CCN(CCCC(=O)c2ccc(F)cc2)CC1 [Metylperon]	0.36
COC(=O)C1=C(C)NC(C)=C(C(=O)OCC(C)C)C1c1ccccc1[N+](=O)[O-] (stereo not shown) [NISOLDIPINE]	2.32
c1ccc2c3c([nH]c2c1)CNCC3 [TRYPTOLINE]	0.19
CC(C)[C@H]1CC[C@H](C(=O)N[C@H](Cc2ccccc2)C(=O)O)CC1 [NATEGLINIDE]	-0.03
CCOC(=O)C1=C(C)NC(C)=C(C(=O)OCC)C1c1ccccc1/C=C/C(=O)OC(C)(C)C [LACIDIPINE]	-0.35
CC[C@H]1OC(=O)[C@H](C)[C@@H](O[C@H]2C[C@@](C)(OC)[C@@H](O)[C@H](C)O2)[C@H](C)[C@@H](O[C@@H]2O[C@H](C)C[C@H](N(C)C)[C@H]2O)[C@](C)(OC)C[C@@H](C)C(=O)[C@H](C)[C@@H](O)[C@]1(C)O [CLARITHROMYCIN]	0.55
CC(N/C(=N\C#N)Nc1ccncc1)C(C)(C)C (stereo not shown) [Pinacidil monohydrate]	0.85
CCCN1CCCC[C@H]1C(=O)Nc1c(C)cccc1C [ROPIVACAINE HCl]	-0.05

SMILES	Z-SCORE
COC(=O)N1CCN(C(=O)Cc2ccc(Cl)c(Cl)c2)C(CN2CCCC2)C1 (stereo not shown) [GR 89696]	1.46
CC(COc1ccccc1Cc1ccccc1)N1CCCCC1.O=P(O)(O)O (stereo not shown) [BENPROPERINE PHOSPHATE]	-0.08
O=c1ncc(F)c[nH]1 [5-fluoro-2-pyrimidone]	-0.03
CC(=O)SCC(Cc1ccccc1)C(=O)NCC(=O)OCc1ccccc1 (stereo not shown)	0
CO[C@H]1/C=C/O[C@@]2(C)Oc3c(C)c(O)c4c(O)c(c(/C=N/N5CCN(C6CCCC6)CC5)c(O)c4c3C2=O)NC(=O)/C(C)=C\C=C\[C@H](C)[C@H](O)[C@@H](C)[C@@H](O)[C@@H](C)[C@H](OC(C)=O)[C@@H]1C [RIFAPENTINE, reference compound]	0.75
CCc1ccc(CCOc2ccc(CC3SC(=O)NC3=O)cc2)nc1 (stereo not shown) [PIOGLITAZONE HCl]	-0.64
CC(=O)Nc1ccc(CC(=O)O)cc1 [ACTARIT]	-0.12
CCCN[C@H]1CCc2nc(N)sc2C1.Cl [PRAMIPEXOLE HCl]	-0.74
O=c1c2ccccc2[se]n1-c1ccccc1 [EBSELEN]	-0.25
COc1cc(C)nc(-n2nc(C)cc2OC)n1 [MEPIRIZOLE]	0.59
CCCc1nc2c(C)cc(-c3nc4ccccc4n3C)cc2n1Cc1ccc(-c2ccccc2C(=O)O)cc1	0.38
C[C@@H](O)[C@H]1C(=O)N2C(C(=O)O)=C(S[C@@H]3CN[C@H](C(=O)N(C)C)C3)[C@H](C)[C@H]12 [MEROPENEM]	-0.25
CC(C)(C#N)c1cc(Cn2cncn2)cc(C(C)(C)C#N)c1 [ANASTROZOLE]	-0.16
CCCN1C[C@H](CSC)C[C@@H]2c3cccc4[nH]cc(c34)C[C@H]21 [PERGOLIDE MESYLATE]	-0.4
CN(C)CCCSc1ccccc1NC(=O)/C=C/c1ccccc1 [Cinanserin]	-0.77
CN(CCCN1c2ccccc2CCc2ccccc21)CC(=O)c1ccc(Cl)cc1 [LOFEPRAMINE]	-0.53

Same assay, conditions: compounds at 10 μM, 24 h; PC12 split TEV assay cells co-cultured with Nrg1-expressing PC12 cells; analysed with cellHTS2

SMILES	Z-SCORE
CN1CCN2c3ncccc3Cc3ccccc3C2C1 (stereo not shown) [mirtazapine, reference compound]	0.65
CCCc1cc(=O)[nH]c(=S)[nH]1 [Propylthiouracil, reference compound]	0.58
Cn1c(=O)c2[nH]cnc2n(C)c1=O [Theophylline, reference compound]	2.57
Cc1cccc(C)c1OCC(C)N (stereo not shown) [Mexitil, reference compound]	1.1
Cc1ccc(-c2cc(C(F)(F)F)nn2-c2ccc(S(N)(=O)=O)cc2)cc1 [Celecoxib, reference compound]	-0.36
S=c1[nH]cnc2nc[nH]c12 [Mercaptopurine, reference compound]	0
O=C1NC(=O)C(c2ccccc2)(c2ccccc2)N1 [Dilantin, reference compound]	0.95
OC(CCN1CCCCC1)(c1ccccc1)C1CCCCC1 (stereo not shown) [Artane, reference compound]	-0.35
c1ccc(-c2ccc(C(c3ccccc3)n3ccnc3)cc2)cc1 (stereo not shown) [Bifonazole, reference compound]	-3.45
CC(CCc1ccccc1)NCC(O)c1ccc(O)c(C(N)=O)c1 (stereo not shown) [LABETALOL HYDROCHLORIDE, reference compound]	-1.04
C#C[C@]1(OC(C)=O)CC[C@H]2[C@@H]3CCC4=CC(=O)CC[C@@H]4[C@H]3CC[C@@]21C [19-NORETHINDRONE ACETATE, reference compound]	-0.99
CC(C(=O)O)c1cccc(C(=O)c2ccccc2)c1 (stereo not shown) [KETOPROFEN, reference compound]	0.15
NCCc1ccc(O)c(O)c1 [Intropin, reference compound]	0.13
O=C(C1CCCCC1)N1CC(=O)N2CCc3ccccc3C2C1 (stereo not shown) [PRAZIQUANTEL, reference compound]	0.38
CC(C)NCC(O)COc1ccc(CC(N)=O)cc1 (stereo not shown) [ATENOLOL, reference compound]	0.6
NCC(=O)CCC(=O)O [Aminolevulinic Acid, reference compound]	-0.04
OC(Cn1cncn1)(Cn1cncn1)c1ccc(F)cc1F [Fluconazole, reference compound]	0.28
O=C1CN(/N=C/c2ccc([N+](=O)[O-])o2)C(=O)N1 [NITROFURANTOIN, reference compound]	-0.02
COc1ccc2cc(CCC(C)=O)ccc2c1 [NABUMETONE, reference compound]	1.61
CNCCCN1c2ccccc2CCc2ccccc21 [Norpramin, reference compound]	-3.45
CO[C@H]1/C=C/O[C@@]2(C)Oc3c(C)c(O)c4c(O)c(c(/C=N/N5CCN(C6CCCC6)CC5)c(O)c4c3C2=O)NC(=O)/C(C)=C\C=C\[C@H](C)[C@H](O)[C@@H](C)[C@@H](O)[C@@H](C)[C@H](OC(C)=O)[C@@H]1C [RIFAPENTINE, reference compound]	0.91
CN(C)CCC=C1c2ccccc2CCc2ccccc21.Cl [Annoyltin, reference compound]	0.33
CCC1(c2ccc(N)cc2)CCC(=O)NC1=O (stereo not shown) [Aminoglutethimide, reference compound]	-0.62
COc1ccc(Cl)cc1C(=O)NCCc1ccc(S(=O)(=O)NC(=O)NC2CCCCC2)cc1 [Glyburide, reference compound]	-0.5
Cl.NCC(O)c1ccc(O)c(O)c1 (racemic) [(+/-)-NOREPINEPHRINE HYDROCHLORIDE, reference compound]	1.11
CCOC(=O)[C@H](CCc1ccccc1)N[C@@H](C)C(=O)N1[C@H](C(=O)O)C[C@@H]2CCC[C@@H]21 [reference compound]	4.3
Cc1cn([C@H]2C[C@H](N=[N+]=[N-])[C@@H](CO)O2)c(=O)[nH]c1=O [zidovudine, reference compound]	0.17
CC(=O)Nc1nnc(S(N)(=O)=O)s1 [Acetazolamide, reference compound]	0.2
C[C@]12C=CC(=O)C=C1CC[C@@H]1[C@@H]2C(=O)C[C@@]2(C)[C@H]1CC[C@]2(O)C(=O)CO [Prednisone, reference compound]	-0.15
CCn1cc(C(=O)O)c(=O)c2ccc(C)nc21 [Nalidixic Acid, reference compound]	0.31
